Results taken from patent US9217015B2, “Cyclosporin derivatives for the treatment and prevention of a viral infection” (S&T Global Inc., priority 2010, dated 2015).
Like-named read-outs stand apart in the source and are kept apart here. Numbered stars: 1 amine (or outer) side, 2 acyl side, 3 side chain; on linkers, the order of the positions; unused ones are H or OH. Square brackets hold non-standard residues; d marks the D form. Peptide text beside a SMILES is read from it. ξ: configuration not given here. MeBmt = C/C=C/C[C@@H](C)[C@@H](O)[C@H](NC)C(=O)O; X1 = CN([C@H](SCCCN1CCOCC1)C(=O)[*:2])[*:1]; X2 = CCN(CC)CCCS[C@H](C(=O)[*:2])N(C)[*:1]; X3 = CCN(CC)CCS[C@H](C(=O)[*:2])N(C)[*:1]; NMeIle(3ξ) = CCC(C)[C@H](NC)C(=O)O; NMeL = CN[C@@H](CC(C)C)C(=O)O; NMeV = CN[C@H](C(=O)O)C(C)C; Abu = CC[C@H](N)C(=O)O

Columns and labels:
[1] = type: physicochemical
Protocol: The stability of Cyclosporin derivatives were evaluated in methanol at 65° C. and 50° C., and HPLC was used to monitor possible degradation of these compounds (C8, 250 mm, NH4OAc 10 mmol in MeCN and H2O, operation temperature: 65° C.).

HCV replicon = assay: HCV subgenomic replicon assay (Huh7 ET luc-ubi-neo/ET cells, luciferase end point); type: cell-based; settings: read-out: Antiviral activity IC50
Protocol: The anti-HCV activity of cyclosporine derivatives were evaluated in the HCV subgenomic replicon assay. The assay use the cell line ET (luc-ubi-neo/ET), which is a Huh7 human hepatoma cell line harboring an HCV replicon with a stable luciferase (Luc) reporter. HCV RNA replication was assessed by quantifying HCV replicon-derived luciferase activity. The antiviral activity of cyclosporine analogs were evaluated after drug treatment, the EC 50 and EC 90 were determined in subsequent assessments by using the luciferase end point (Krieger, N. et al., 2001, J. Virol. 75:4614-4624; Pietschmann, T. et al., 2002, J. Virol. 76:4008-4021; each of which is incorporated herein by reference).

[2] = Huh7 ET (luc-ubi-neo/ET) cells, HCV replicon-derived luciferase activity

Row | Compound | Epimerization in MeOH at 50° C. ([1]; 29 hrs) [%] | Epimerization in MeOH at 50° C. ([1]; 77 hrs) [%] | Epimerization in MeOH at 50° C. ([1]; 125 hrs) [%] | further results
1 | C/C=C/C[C@@H](C)[C@@H](O)[C@H]1C(=O)N[C@@H](CC)C(=O)N(C)[C@H](SCCCN2CCOCC2)C(=O)N(C)[C@@H](C(C)CC)C(=O)N[C@@H](C(C)C)C(=O)N(C)[C@@H](CC(C)C)C(=O)N[C@@H](C)C(=O)N[C@H](C)C(=O)N(C)[C@@H](CC(C)C)C(=O)N(C)[C@@H](CC(C)C)C(=O)N(C)[C@@H](C(C)C)C(=O)N1C (some centres unmarked) (cyclo(A[dA][NMeL][NMeL][NMeV][MeBmt][Abu][X1][NMeIle(3ξ)]V[NMeL])) | 0 | 0 | 0 | 
2 | C/C=C/C[C@@H](C)[C@@H](O)[C@H]1C(=O)N[C@@H](CC)C(=O)N(C)[C@H](SCCCN2CCOCC2)C(=O)N(C)[C@@H](C(C)C)C(=O)N[C@@H](C(C)C)C(=O)N(C)[C@@H](CC(C)C)C(=O)N[C@@H](C)C(=O)N[C@H](C)C(=O)N(C)[C@@H](CC(C)C)C(=O)N(C)[C@@H](CC(C)C)C(=O)N(C)[C@@H](C(C)C)C(=O)N1C (cyclo(A[dA][NMeL][NMeL][NMeV][MeBmt][Abu][X1][NMeV]V[NMeL])) | 0 | 0 | 0 | 
3 | C/C=C/C[C@@H](C)[C@@H](O)[C@H]1C(=O)N[C@@H](CC)C(=O)N(C)[C@H](SCCCN(CC)CC)C(=O)N(C)[C@@H](C(C)CC)C(=O)N[C@@H](C(C)C)C(=O)N(C)[C@@H](CC(C)C)C(=O)N[C@@H](C)C(=O)N[C@H](C)C(=O)N(C)[C@@H](CC(C)C)C(=O)N(C)[C@@H](CC(C)C)C(=O)N(C)[C@@H](C(C)C)C(=O)N1C (some centres unmarked) (cyclo(A[dA][NMeL][NMeL][NMeV][MeBmt][Abu][X2][NMeIle(3ξ)]V[NMeL])) | 0 | 0 | 0 | 
4 | C/C=C/C[C@@H](C)[C@@H](O)[C@H]1C(=O)N[C@@H](CC)C(=O)N(C)[C@H](SCCCN(CC)CC)C(=O)N(C)[C@@H](C(C)C)C(=O)N[C@@H](C(C)C)C(=O)N(C)[C@@H](CC(C)C)C(=O)N[C@@H](C)C(=O)N[C@H](C)C(=O)N(C)[C@@H](CC(C)C)C(=O)N(C)[C@@H](CC(C)C)C(=O)N(C)[C@@H](C(C)C)C(=O)N1C (cyclo(A[dA][NMeL][NMeL][NMeV][MeBmt][Abu][X2][NMeV]V[NMeL])) | 0 | 0 | 0 | 
5 | C/C=C/C[C@@H](C)[C@@H](O)[C@H]1C(=O)N[C@@H](CC)C(=O)N(C)[C@H](SCCN(CC)CC)C(=O)N(C)[C@@H](C(C)C)C(=O)N[C@@H](C(C)C)C(=O)N(C)[C@@H](CC(C)C)C(=O)N[C@@H](C)C(=O)N[C@H](C)C(=O)N(C)[C@@H](CC(C)C)C(=O)N(C)[C@@H](CC(C)C)C(=O)N(C)[C@@H](C(C)C)C(=O)N1C [Example 1, [(R)-2-(N,N-Diethylamino)ethylthio-Sar]-3-[N-methylvaline]-4-cyclosporin] (cyclo(A[dA][NMeL][NMeL][NMeV][MeBmt][Abu][X3][NMeV]V[NMeL])) |  |  |  | IC50 (HCV replicon; Hepatitis C virus, Huh7 ET): 50 nM
6 | C/C=C/C[C@@H](C)[C@@H](O)[C@H]1C(=O)N[C@@H](CC)C(=O)N(C)[C@H](SCCN(CC)CC)C(=O)N(C)[C@@H](C(C)CC)C(=O)N[C@@H](C(C)C)C(=O)N(C)[C@@H](CC(C)C)C(=O)N[C@@H](C)C(=O)N[C@H](C)C(=O)N(C)[C@@H](CC(C)C)C(=O)N(C)[C@@H](CC(C)C)C(=O)N(C)[C@@H](C(C)C)C(=O)N1C (stereo partly drawn) [Example 4, [(R)-2-(N,N-Diethylamino)ethylthio-Sar]-3-[N-methylisoleucine]-4-cyclosporin] (cyclo(A[dA][NMeL][NMeL][NMeV][MeBmt][Abu][X3][NMeIle(3ξ)]V[NMeL])) |  |  |  | IC50 (HCV replicon; Hepatitis C virus, Huh7 ET): 40 nM
7 | C/C=C/C[C@@H](C)[C@@H](O)[C@H]1C(=O)N[C@@H](CC)C(=O)N(C)[C@H](SCCCN2CCOCC2)C(=O)N(C)[C@@H](C(C)CC)C(=O)N[C@@H](C(C)C)C(=O)N(C)[C@@H](CC(C)C)C(=O)N[C@@H](C)C(=O)N[C@H](C)C(=O)N(C)[C@@H](CC(C)C)C(=O)N(C)[C@@H](CC(C)C)C(=O)N(C)[C@@H](C(C)C)C(=O)N1C (stereo partly drawn) [Example 6, [(R)-3-(N-Morpholino)propylthio-Sar]-3-[N-methylisoleucine]-4-cyclosporin] (cyclo(A[dA][NMeL][NMeL][NMeV][MeBmt][Abu][X1][NMeIle(3ξ)]V[NMeL])) |  |  |  | IC50 (HCV replicon; Hepatitis C virus, Huh7 ET): 50 nM
8 | C/C=C/C[C@@H](C)[C@@H](O)[C@H]1C(=O)N[C@@H](CC)C(=O)N(C)[C@H](SCCN(C)C)C(=O)N(C)[C@@H](CC(C)(C)O)C(=O)N[C@@H](C(C)C)C(=O)N(C)[C@@H](CC(C)C)C(=O)N[C@@H](C)C(=O)N[C@H](C)C(=O)N(C)[C@@H](CC(C)C)C(=O)N(C)[C@@H](CC(C)C)C(=O)N(C)[C@@H](C(C)C)C(=O)N1C [SCY-635, reference compound] |  |  |  | Chemical stability (conversion to epimer), in words [1]: not chemically stable
9 | C/C=C/C[C@@H](C)[C@@H](O)[C@H]1C(=O)N[C@@H](CC)C(=O)N(C)CC(=O)N(C)[C@@H](C(C)C)C(=O)N[C@@H](C(C)C)C(=O)N(C)[C@@H](CC(C)C)C(=O)N[C@@H](C)C(=O)N[C@H](C)C(=O)N(C)[C@@H](CC(C)C)C(=O)N(C)[C@@H](CC(C)C)C(=O)N(C)[C@@H](C(C)C)C(=O)N1C [SDZ-220-384, N-MeVal-4-cyclosporin, reference compound] |  |  |  | IC50 (HCV replicon; [2]): 170 nM
10 | C/C=C/C[C@@H](C)[C@@H](O)[C@H]1C(=O)N[C@@H](CC)C(=O)N(C)CC(=O)N(C)[C@@H]([C@@H](C)CC)C(=O)N[C@@H](C(C)C)C(=O)N(C)[C@@H](CC(C)C)C(=O)N[C@@H](C)C(=O)N[C@H](C)C(=O)N(C)[C@@H](CC(C)C)C(=O)N(C)[C@@H](CC(C)C)C(=O)N(C)[C@@H](C(C)C)C(=O)N1C [SDZ-NIM-811, N-MeIle-4-Cyclosporin, reference compound] |  |  |  | IC50 (HCV replicon; Hepatitis C virus, Huh7 ET): 150 nM
11 | C/C=C/C[C@@H](C)[C@@H](O)[C@H]1C(=O)N[C@@H](CC)C(=O)N(C)[C@H](SCCN(C)C)C(=O)N(C)[C@@H](CC(C)C)C(=O)N[C@@H](C(C)C)C(=O)N(C)[C@@H](CC(C)C)C(=O)N[C@@H](C)C(=O)N[C@H](C)C(=O)N(C)[C@@H](CC(C)C)C(=O)N(C)[C@@H](CC(C)C)C(=O)N(C)[C@@H](C(C)C)C(=O)N1C [[(R)-2-(N,N-Dimethylamino)ethylthio-Sar]-3-cyclosporin, reference compound] |  |  |  | Chemical stability (conversion to epimer), in words [1]: not stable
12 | C/C=C/C[C@@H](C)[C@@H](O)[C@H]1C(=O)N[C@@H](CC)C(=O)N(C)[C@H](SCCN(C)C)C(=O)N(C)[C@@H](CC(C)C)C(=O)N[C@@H](C(C)C)C(=O)N(C)[C@@H](CC(C)C)C(=O)N[C@@H](C)C(=O)N[C@H](C)C(=O)N(C)[C@@H](CC(C)C)C(=O)N(C)[C@@H](CC(C)C)C(=O)N(C)[C@@H](C(C)C)C(=O)N1C [drawing 57] |  |  |  | Epimerization in MeOH at 65° C. ([1]; 2 hours): 12%; Epimerization in MeOH at 65° C. ([1]; 4 hours): 19%; Epimerization in MeOH at 65° C. ([1]; 6 hours): 23%
13 | C/C=C/C[C@@H](C)[C@@H](O)[C@H]1C(=O)N[C@@H](CC)C(=O)N(C)[C@H](SCCN(C)C)C(=O)N(C)[C@@H](CC(C)C)C(=O)N[C@@H](C(C)C)C(=O)N(C)[C@@H](CC(C)C)C(=O)N[C@@H](C)C(=O)N[C@H](C)C(=O)N(C)[C@@H](CC(C)C)C(=O)N(C)[C@@H](CC(C)C)C(=O)N(C)[C@@H](C(C)C)C(=O)N1C [drawing 58, reference compound] | 25.5 | 31.8 | 34.9 | 
14 | C/C=C/C[C@@H](C)[C@@H](O)[C@H]1C(=O)N[C@@H](CC)C(=O)N(C)[C@H](SCCN(CC)CC)C(=O)N(C)[C@@H](C(C)CC)C(=O)N[C@@H](C(C)C)C(=O)N(C)[C@@H](CC(C)C)C(=O)N[C@@H](C)C(=O)N[C@H](C)C(=O)N(C)[C@@H](CC(C)C)C(=O)N(C)[C@@H](CC(C)C)C(=O)N(C)[C@@H](C(C)C)C(=O)N1C (some centres unmarked) [reference compound] (cyclo(A[dA][NMeL][NMeL][NMeV][MeBmt][Abu][X3][NMeIle(3ξ)]V[NMeL])) | 4.4 | 10.4 | 16.2 | 
15 | [(S)-2-(N,N-Diethylamino)ethylthio-Sar]-3-[N-methylvaline]-4-cyclosporin |  |  |  | IC50 (HCV replicon; [2]): 3660 nM
